The nature of data set [1]: Aqueous solubility of the compound in simulated gastric fluid at pH 1.5. The data set is classed as ADME. To be noted: simulated gi fluid.
Data set [2] can be described thus: Aqueous solubility of the compound in simulated intestinal fluid at pH 4.5. The data set is classed as ADME. The note with it: simulated gi fluid.
The nature of data set [3]: Aqueous solubility of the compound in simulated intestinal fluid at pH 6.8. It is filed as ADME. The note with it: simulated gi fluid.
Data set [4] in a line: Aqueous solubility of the compound in hepes buffer at pH 7.4. It is filed as physicochemical.

As to `CCCS(=O)(=O)Nc1ccc(F)c(C(=O)c2c[nH]c3ncc(-c4ccc(C(=O)NC)nc4)cc23)c1F`, the solubility result in data set [1], in data set [2], in data set [3] and in data set [4] was “Insoluble” throughout.
In the case of `N#Cc1cnc2[nH]cc(C(=O)c3c(F)ccc(NS(=O)(=O)c4ccccc4F)c3F)c2c1`, the solubility entry in data set [1], in data set [2], in data set [3] and in data set [4] was “Soluble” throughout.
Turning to `CCCS(=O)(=O)Nc1ccc(F)c(C(=O)c2c[nH]c3ncc(-c4ccc(OCCN5CCOCC5)nc4)cc23)c1F`, the solubility entry in data set [1] is listed as “Soluble”; in data set [2], “Soluble”; in data set [3] it was “Insoluble”; in data set [4], “Insoluble”.
Consider `CCCS(=O)(=O)Nc1ccc(F)c(C(=O)c2c[nH]c3ncc(-c4cncnc4)cc23)c1F`, for which the solubility result in data set [1], in data set [2], in data set [3] and in data set [4] was “Soluble” throughout.
As for `CCCS(=O)(=O)Nc1ccc(F)c(C(=O)c2c[nH]c3ncc(-c4cncc(S(C)(=O)=O)c4)cc23)c1F`, the solubility entry in data set [1] was “Soluble”; in data set [2] it was “Insoluble”; in data set [3], “Insoluble”; in data set [4], “Soluble”.
As for `CCCS(=O)(=O)Nc1ccc(F)c(C(=O)c2c[nH]c3ncc(-c4cn[nH]c4)cc23)c1F`, the solubility result in data set [1], in data set [2], in data set [3] and in data set [4] was “Insoluble” in each case.
As to `N#Cc1cnc2[nH]cc(C(=O)c3cccc(NS(=O)(=O)c4ccccc4)c3F)c2c1`, the solubility entry in data set [1] was “Insoluble”; in data set [2], “Insoluble”; in data set [3] it was “Soluble”; in data set [4], “Soluble”.
Take `COc1ncc(-c2cnc3[nH]cc(C(=O)c4c(F)ccc(NS(=O)(=O)c5cc(F)ccc5F)c4F)c3c2)cn1`: the solubility entry in data set [1], in data set [2], in data set [3] and in data set [4] was “Insoluble” throughout.
As to `COc1ncc(-c2cnc3[nH]cc(C(=O)c4c(F)ccc(NS(=O)(=O)c5ccccc5F)c4F)c3c2)cn1`, the solubility entry in data set [1], in data set [2], in data set [3] and in data set [4] was “Insoluble” in each case.
On to `N#Cc1cnc2[nH]cc(C(=O)c3c(F)ccc(NS(=O)(=O)c4ccccc4)c3F)c2c1`, for which the solubility entry in data set [1] is reported as “Insoluble”; in data set [2], “Insoluble”; in data set [3], “Soluble”; in data set [4] it was “Soluble”.
`CCCS(=O)(=O)Nc1ccc(F)c(C(=O)c2c[nH]c3ncc(-c4ccc(F)nc4)cc23)c1F`: the solubility entry in data set [1], in data set [2], in data set [3] and in data set [4] was “Insoluble” throughout.
For the molecule `CCCS(=O)(=O)Nc1ccc(F)c(C(=O)c2c[nH]c3ncc(-c4cnc(C)nc4)cc23)c1F`, the solubility entry in data set [1], in data set [2], in data set [3] and in data set [4] was “Soluble” throughout.
Consider `CCCS(=O)(=O)Nc1ccc(F)c(C(=O)c2c[nH]c3ncc(-c4ccc(S(=O)(=O)NC5CC5)cc4)cc23)c1F`, for which the solubility result in data set [1], in data set [2], in data set [3] and in data set [4] was “Insoluble” each time.
`O=C(c1c(F)ccc(NS(=O)(=O)c2c(F)cccc2F)c1F)c1c[nH]c2ncc(Cl)cc12`: the solubility entry in data set [1], in data set [2], in data set [3] and in data set [4] was “Soluble” in each case.
Regarding `CCCS(=O)(=O)Nc1ccc(F)c(C(=O)c2c[nH]c3ncc(-c4cnc(SC)nc4)cc23)c1F`, the solubility entry in data set [1], in data set [2], in data set [3] and in data set [4] was “Insoluble” in each case.
Turning to `CCCS(=O)(=O)Nc1ccc(F)c(C(=O)c2c[nH]c3ncc(-c4ccc(OCCCN5CCCC5)nc4)cc23)c1F`, the solubility entry is “Insoluble” in data set [1], “Soluble” in data set [2], “Insoluble” in data set [3] and “Insoluble” in data set [4].
With `COc1ccnc2[nH]cc(C(=O)c3c(F)ccc(NS(=O)(=O)c4cc(F)ccc4F)c3F)c12`, the solubility entry in data set [1], in data set [2], in data set [3] and in data set [4] was “Soluble” each time.
Regarding `N#Cc1cnc2[nH]cc(C(=O)c3cccc(NS(=O)(=O)c4cccc(F)c4)c3F)c2c1`, the solubility entry in data set [1] is given as “Insoluble”; in data set [2] it was “Insoluble”; in data set [3], “Soluble”; in data set [4], “Soluble”.
As for `CCCS(=O)(=O)Nc1ccc(F)c(C(=O)c2c[nH]c3ncc(-c4cnc(N5CCCC5)nc4)cc23)c1F`, the solubility entry in data set [1] is “Soluble”; in data set [2], “Insoluble”; in data set [3] it was “Insoluble”; in data set [4] it was “Insoluble”.
For the molecule `COc1cnc2[nH]cc(C(=O)c3c(F)ccc(NS(=O)(=O)c4ccccc4F)c3F)c2c1`, the solubility entry in data set [1] is “Insoluble”; in data set [2], “Insoluble”; in data set [3] it was “Insoluble”; in data set [4], “Soluble”.
Consider `CCCS(=O)(=O)Nc1cccc(C(=O)c2c[nH]c3ncc(-c4cnc(N(C)C)nc4)cc23)c1F`, for which the solubility result in data set [1], in data set [2], in data set [3] and in data set [4] was “Insoluble” each time.
For `Cc1cnc2[nH]cc(C(=O)c3c(F)ccc(NS(=O)(=O)c4cccc(F)c4)c3F)c2c1`, the solubility result in data set [1] is on record as “Soluble”; in data set [2], “Insoluble”; in data set [3], “Soluble”; in data set [4], “Soluble”.
As for `O=C(c1c(F)ccc(NS(=O)(=O)c2cc(F)ccc2F)c1F)c1c[nH]c2ncc(Cl)cc12`, the solubility entry was “Insoluble” in data set [1], “Insoluble” in data set [2], “Soluble” in data set [3] and “Soluble” in data set [4].
Consider `CCCS(=O)(=O)Nc1ccc(F)c(C(=O)c2c[nH]c3ncc(C#CCOC)cc23)c1F`, for which the solubility entry is recorded as “Insoluble” in data set [1], “Soluble” in data set [2], “Insoluble” in data set [3] and “Soluble” in data set [4].
For the molecule `N#Cc1cnc2[nH]cc(C(=O)c3cccc(NS(=O)(=O)c4ccccc4F)c3F)c2c1`, the solubility entry in data set [1], in data set [2], in data set [3] and in data set [4] was “Soluble” in each case.
On to `COc1ccnc2[nH]cc(C(=O)c3c(F)ccc(NS(=O)(=O)c4cccc(F)c4)c3F)c12`, for which the solubility entry in data set [1], in data set [2], in data set [3] and in data set [4] was “Soluble” throughout.

Source of the values: ChEMBL document CHEMBL3879902, “Compounds and methods for kinase modulation, and indications thereof” (2012).
